pIC50: −log10 of the molar value. Where a name gives a salt, the structure may show the parent alone.

T1 sequence (Q92633 whole entry): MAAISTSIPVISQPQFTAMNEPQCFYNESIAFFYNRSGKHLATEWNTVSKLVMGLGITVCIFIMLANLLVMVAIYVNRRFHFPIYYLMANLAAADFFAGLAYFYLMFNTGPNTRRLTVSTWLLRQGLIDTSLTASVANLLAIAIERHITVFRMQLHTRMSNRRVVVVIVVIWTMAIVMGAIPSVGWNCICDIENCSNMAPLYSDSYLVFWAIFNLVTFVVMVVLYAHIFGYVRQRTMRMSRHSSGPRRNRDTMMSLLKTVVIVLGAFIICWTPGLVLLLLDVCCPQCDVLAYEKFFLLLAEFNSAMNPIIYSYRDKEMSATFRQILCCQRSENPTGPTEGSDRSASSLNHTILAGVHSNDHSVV

This experiment has as its target T1, human LPA1 (Homo sapiens, UniProt Q92633).
T1 construct: expressed in transfected cells; host or cells: Chinese hamster ovary (CHO) cells
Kind of experiment: LPA1 functional antagonist assay (calcium flux). The format is cell-based. The note with it: CHO cells overexpressing human LPA1; inhibition of calcium flux induced by 10 nM LPA; read-out: hLPA1 IC50. In a few lines:
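IC50 values come from 4-parameter logistic fits and mark 50% block of the calcium flux evoked by 10 nM LPA. Human LPA1-overexpressing CHO cells were calcium-dye loaded at 37 °C, then given test compound (0.08 nM–5 μM, 0.5% DMSO, HEPES-buffered HBSS with 0.1% fatty-acid-free BSA) for 20 min at room temperature before agonist.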
As to `Cc1nc(-c2nnn(C)c2CCNc2nccc(C(C)(C)C)n2)ccc1O[C@H]1CCC[C@H](C(=O)O)C1` [Example 400, (1S,3S)-3-((6-(5-(2-((4-(tert-butyl)pyrimidin-2-yl)amino)ethyl)-1-methyl-1H-1,2,3-triazol-4-yl)-2-methylpyridin-3-yl)oxy)cyclohexane-1-carboxylic acid], the pIC50 – broadly, the IC50 on a negative log10 scale, so that one unit is a factor of ten – is 6.17.

Regarding `Cc1nc(-c2nnn(C)c2COc2nccc(C(C)(F)F)n2)ccc1O[C@H]1CCC[C@H](C(=O)O)C1` [Example 370], the pIC50 was 7.68.

On to `Cc1nc(-c2nnn(C)c2CNc2nccc(OCC(F)F)n2)ccc1O[C@H]1CCC[C@H](C(=O)O)C1` [Example 79], for which the pIC50 is 7.10.

For the compound `Cc1nc(-c2nnn(C)c2CNc2cc(OC(F)(F)F)ccn2)ccc1O[C@H]1CCC[C@H](C(=O)O)C1` [Example 72], the pIC50 was 7.24.

With `Cc1nc(-c2nnn(C)c2Nc2ccnc(OCC3CC3)n2)ccc1O[C@H]1CCC[C@H](C(=O)O)C1` [Example 233, (1S,3S)-3-((6-(5-((2-(cyclopropyl-methoxy)pyrimidin-4-yl)amino)-1-methyl-1H-1,2,3-triazol-4-yl)-2-methylpyridin-3-yl)oxy)cyclohexane-1-carboxylic acid], the pIC50 is 6.41.

As for `Cc1nc(-c2nnn(C)c2COc2cc(-n3ccnc3)ncn2)ccc1O[C@H]1CCC[C@H](C(=O)O)C1` [Example 359], the pIC50 is 6.33.

In the case of `Cc1nc(-c2nnn(C)c2CNc2nccc(COC(C)C)n2)ccc1O[C@H]1CCC[C@H](C(=O)O)C1` [Example 319], the negative-log IC50 (pIC50) is 7.24.

For the compound `CCc1nc(-c2nnn(C)c2CNc2nccc(OC3CC3)n2)ccc1O[C@H]1CCC[C@H](C(=O)O)C1` [Example 390], the pIC50 was 7.77.

As to `COc1cc(OCc2c(-c3ccc(O[C@H]4CCC[C@H](C(=O)O)C4)cn3)nnn2C)ncn1` [Example 351], the pIC50 was 7.47.

Turning to `Cc1cccc(Oc2ccnc(NCc3c(-c4ccc(O[C@H]5CCC[C@H](C(=O)O)C5)c(C)n4)nnn3C)n2)c1` [Example 108], the pIC50 is 6.82.

Regarding `Cc1nc(-c2nnn(C)c2CNc2ncnc(C3CCC3)n2)ccc1O[C@H]1CCC[C@H](C(=O)O)C1` [Example 183], the pIC50 is 7.27.

As for `CCCN(C)c1nc(NCc2c(-c3ccc(O[C@H]4CCC[C@H](C(=O)O)C4)c(C)n3)nnn2C)ncc1F` [Example 44], the pIC50 was 7.36.

Consider `Cc1nc(-c2nnn(C)c2CNc2nccc(Oc3cc(F)cc(F)c3)n2)ccc1O[C@H]1CCC[C@H](C(=O)O)C1` [Example 114], for which the pIC50 is 7.77.

Consider `CCCc1cncc(NCc2c(-c3ccc(O[C@H]4CCC[C@H](C(=O)O)C4)c(C)n3)nnn2C)n1` [Example 380, (1S,3S)-3-((2-Methyl-6-(1-methyl-5-(((6-propylpyrazin-2-yl)amino)methyl)-1H-1,2,3-triazol-4-yl)pyridin-3-yl)oxy)cyclohexane-1-carboxylic acid], for which the negative-log IC50 (pIC50) is 7.03.

Turning to `COc1nc(NCc2c(-c3ccc(O[C@H]4CCC[C@H](C(=O)O)C4)c(C)n3)nnn2C)nc(C2CC2)n1` [Example 201, (1S,3S)-3-((6-(5-(((4-Cyclopropyl-6-methoxy-1,3,5-triazin-2-yl)amino)methyl)-1-methyl-1H-1,2,3-triazol-4-yl)-2-methylpyridin-3-yl)oxy)cyclohexane-1-carboxylic acid, bis TFA Salt], the pIC50 was 6.98.

On to `CCCCc1cccc(Nc2c(-c3ccc(O[C@H]4CCC[C@H](C(=O)O)C4)cn3)nnn2C)n1` [Example 245, (1S,3S)-3-((6-(5-((6-butylpyridin-2-yl)amino)-1-methyl-1H-1,2,3-triazol-4-yl)pyridin-3-yl)oxy)cyclohexane-1-carboxylic acid], for which the pIC50 was 7.49.

Consider `Cc1nc(-c2nnn(C)c2Nc2nccc(OCC3CC3)n2)ccc1O[C@H]1CCC[C@H](C(=O)O)C1` [Example 232, (1S,3S)-3-((6-(5-((4-(cyclopropyl-methoxy)pyrimidin-2-yl)amino)-1-methyl-1H-1,2,3-triazol-4-yl)-2-methylpyridin-3-yl)oxy)cyclohexane-1-carboxylic acid], for which the pIC50 was 7.19.

On to `COc1nc(NCc2c(-c3ccc(O[C@H]4CCC[C@H](C(=O)O)C4)c(C)n3)nnn2C)ncc1F` [Example 142], for which the pIC50 is 6.80.

As for `CCCOc1nccc(Nc2c(-c3ccc(O[C@H]4CCC[C@H](C(=O)O)C4)c(C)n3)nnn2C)n1` [Example 238, (1S,3S)-3-((2-methyl-6-(1-methyl-5-((2-propoxypyrimidin-4-yl)amino)-1H-1,2,3-triazol-4-yl)pyridin-3-yl)oxy)cyclohexane-1-carboxylic acid], the pIC50 is 7.28.

With `CCOc1ccnc(NCc2c(-c3ccc(O[C@H]4CCC[C@H](C(=O)O)C4)cn3)nnn2C)n1` [Example 141], the pIC50 was 7.66.

On to `Cc1nc(-c2nnn(C)c2COc2cccc(C(C)C)c2)ccc1O[C@H]1CCC[C@H](C(=O)O)C1` [Example 254, (1S,3S)-3-((6-(5-((3-isopropylphenoxy)methyl)-1-methyl-1H-1,2,3-triazol-4-yl)-2-methylpyridin-3-yl)oxy)cyclohexane-1-carboxylic acid], for which the pIC50 is 8.23.

`CCC(C)c1ncnc(NCc2c(-c3ccc(O[C@H]4CCC[C@H](C(=O)O)C4)c(C)n3)nnn2C)n1` (mixture of isomers) [Example 197, (1S,3S)-3-((6-(5-(((4-(sec-Butyl)-1,3,5-triazin-2-yl)amino)methyl)-1-methyl-1H-1,2,3-triazol-4-yl)-2-methylpyridin-3-yl)oxy)cyclohexane-1-carboxylic acid]: the pIC50 is 7.03.

As for `Cc1nc(-c2nnn(C)c2CNc2nc(O)nc(C3CCCCC3)n2)ccc1O[C@H]1CCC[C@H](C(=O)O)C1` [Example 186], the pIC50 was 6.14.

Turning to `Cc1nc(-c2nnn(C)c2CNc2ncnc(OC3CCC3)n2)ccc1O[C@H]1CCC[C@H](C(=O)O)C1` [Example 211, (1S,3S)-3-((6-(5-(((4-cyclobutoxy-1,3,5-triazin-2-yl)amino)methyl)-1-methyl-1H-1,2,3-triazol-4-yl)-2-methylpyridin-3-yl)oxy)cyclohexane-1-carboxylic acid], the pIC50 is 6.99.

For `Cc1nc(-c2nnn(C)c2CNc2nccc(OCC(F)(F)C(F)F)n2)ccc1O[C@H]1CCC[C@H](C(=O)O)C1` [Example 91], the pIC50 is 7.49.

In the case of `Cc1nc(-c2nnn(C)c2CN(C)c2ncnc(C(C)C)n2)ccc1O[C@H]1CCC[C@H](C(=O)O)C1` [Example 328, (1S,3S)-3-((6-(5-(((4-Isopropyl-1,3,5-triazin-2-yl)(methyl)amino)methyl)-1-methyl-1H-1,2,3-triazol-4-yl)-2-methylpyridin-3-yl)oxy)cyclohexane-1l-carboxylic acid], the negative logarithm of the IC50 (pIC50) was 6.68.

Consider `Cc1nc(-c2nnn(C)c2CNc2nccc(Oc3cc(F)ccc3F)n2)ccc1O[C@H]1CCC[C@H](C(=O)O)C1` [Example 103], for which the pIC50 is 7.48.

Regarding `CCNc1nc(OCc2c(-c3ccc(O[C@H]4CCC[C@H](C(=O)O)C4)c(C)n3)nnn2C)ncc1F` [Example 264], the pIC50 was 7.12.

On to `Cc1nc(-c2nnn(C)c2CNc2cc(Oc3ccccc3)ccn2)ccc1O[C@H]1CCC[C@H](C(=O)O)C1` [Example 152], for which the pIC50 is 7.17.

As to `Cc1nc(-c2nnn(C)c2CNc2ncc(F)c(C(C)C)n2)ccc1O[C@H]1CCC[C@H](C(=O)O)C1` [Example 157], the pIC50 was 7.40.

On to `Cc1nc(-c2nnn(C)c2CNc2nnccc2OC2CC2)ccc1O[C@H]1CCC[C@H](C(=O)O)C1` [Example 218, (1S,3S)-3-((6-(5-(((4-Cyclopropoxy-pyridazin-3-yl)amino)methyl)-1-methyl-1H-1,2,3-triazol-4-yl)-2-methylpyridin-3-yl)oxy)cyclohexane-1-carboxylic acid], for which the negative-log IC50 (pIC50) was 6.67.

With `CCC(C)c1nc(O)nc(NCc2c(-c3ccc(O[C@H]4CCC[C@H](C(=O)O)C4)c(C)n3)nnn2C)n1` (mixture of isomers) [Example 198, (1S,3S)-3-((6-(5-(((4-(sec-Butyl)-6-hydroxy-1,3,5-triazin-2-yl)amino)methyl)-1-methyl-1H-1,2,3-triazol-4-yl)-2-methylpyridin-3-yl)oxy) cyclohexane-1-carboxylic acid], the pIC50 was 6.89.

Take `COCC(C)(C)c1ccnc(NCc2c(-c3ccc(O[C@H]4CCC[C@H](C(=O)O)C4)c(C)n3)nnn2C)n1` [Example 124]: the pIC50 was 6.41.

For `Cc1nc(-c2nnn(C)c2CNc2cccc(Cc3ccccc3)n2)ccc1O[C@H]1CCC[C@H](C(=O)O)C1` [Example 397], the pIC50 was 5.99.

`Cc1nc(-c2nnn(C)c2COc2cc(C(F)(F)F)nc(N3CCCC3)n2)ccc1O[C@H]1CCC[C@H](C(=O)O)C1` [Example 354]: the pIC50 is 6.77.

With `Cc1nc(-c2nnn(C)c2CNc2ncc(C#N)c(C3CCC3)n2)ccc1O[C@H]1CCC[C@H](C(=O)O)C1` [Example 168], the pIC50 was 6.89.

Consider `Cc1nc(-c2nnn(C)c2COc2cncc(Oc3ccccc3)n2)ccc1O[C@H]1CCC[C@H](C(=O)O)C1` [Example 340], for which the pIC50 is 7.60.

Take `Cc1nc(-c2nnn(C)c2CNc2nccc(Oc3ccc(F)cc3)n2)ccc1O[C@H]1CCC[C@H](C(=O)O)C1` [Example 110]: the pIC50 was 7.66.

For the compound `COc1cc(C2CCC2)nc(NCc2c(-c3ccc(O[C@H]4CCC[C@H](C(=O)O)C4)c(C)n3)nnn2C)n1` [Example 170], the pIC50 was 7.80.

As to `Cc1nc(-c2nnn(C)c2CNc2nccc(C(F)(F)F)n2)ccc1O[C@H]1CCC[C@H](C(=O)O)C1` [Example 18], the pIC50 was 7.18.

As to `Cc1nc(-c2nnn(C)c2CNc2nc(C(N)=O)cc(C3CCC3)n2)ccc1O[C@H]1CCC[C@H](C(=O)O)C1` [Example 165], the pIC50 is 6.61.

Take `Cc1nc(-c2nnn(C)c2CNc2nccc(OC(C)C)n2)ccc1O[C@H]1CCC[C@H](C(=O)O)C1` [Example 14]: the pIC50 was 7.34.

As to `Cc1cnc(NCc2c(-c3ccc(O[C@H]4CCC[C@H](C(=O)O)C4)c(C)n3)nnn2C)nc1-c1ccccc1` [Example 19], the pIC50 is 8.10.
